Measurements taken from the supplement of paper PMC13380429.

Columns and labels:
Settings in all cases: 72 h
Vero E6 [1] = assay: relative viability EC50 (midpoint between 100% and the lowest measured viability); higher = less toxic
Caco-2 [2] = assay: as above
Calu-3 [3] = assay: as above
U2OS [4] = assay: as above
HepG2 [5] = assay: as above
Vero E6 [6] = assay: cell viability relative to DMSO; higher = less toxic
Caco-2 [7] = assay: as above
Calu-3 [8] = assay: as above
U2OS [9] = assay: as above
HepG2 [10] = assay: as above
Vero E6 [11] = assay: drug sensitivity score (DSS) for viability; higher = more toxic; extreme values may be limits of the assay
Caco-2 [12] = assay: as above
Calu-3 [13] = assay: as above
U2OS [14] = assay: as above
HepG2 [15] = assay: as above

Structure (SMILES) | relative viability EC50 (Vero E6 [1]) [µM] | relative viability EC50 (Caco-2 [2]) [µM] | relative viability EC50 (Calu-3 [3]) [µM] | relative viability EC50 (U2OS [4]) [µM] | relative viability EC50 (HepG2 [5]) [µM] | cell viability (Vero E6 [6]; 1 nM) [%] | cell viability (Vero E6 [6]; 10 nM) [%] | cell viability (Vero E6 [6]; 100 nM) [%] | cell viability (Vero E6 [6]; 1000 nM) [%] | cell viability (Vero E6 [6]; 10000 nM) [%] | cell viability (Caco-2 [7]; 1 nM) [%] | cell viability (Caco-2 [7]; 10 nM) [%] | cell viability (Caco-2 [7]; 100 nM) [%] | cell viability (Caco-2 [7]; 1000 nM) [%] | cell viability (Caco-2 [7]; 10000 nM) [%] | cell viability (Calu-3 [8]; 1 nM) [%] | cell viability (Calu-3 [8]; 10 nM) [%] | cell viability (Calu-3 [8]; 100 nM) [%] | cell viability (Calu-3 [8]; 1000 nM) [%] | cell viability (Calu-3 [8]; 10000 nM) [%] | cell viability (U2OS [9]; 1 nM) [%] | cell viability (U2OS [9]; 10 nM) [%] | cell viability (U2OS [9]; 100 nM) [%] | cell viability (U2OS [9]; 1000 nM) [%] | cell viability (U2OS [9]; 10000 nM) [%] | cell viability (HepG2 [10]; 1 nM) [%] | cell viability (HepG2 [10]; 10 nM) [%] | cell viability (HepG2 [10]; 100 nM) [%] | cell viability (HepG2 [10]; 1000 nM) [%] | cell viability (HepG2 [10]; 10000 nM) [%] | drug sensitivity score (Vero E6 [11]) | drug sensitivity score (Caco-2 [12]) | drug sensitivity score (Calu-3 [13]) | drug sensitivity score (U2OS [14]) | drug sensitivity score (HepG2 [15])
C[C@H](CCC(=O)NCCS(=O)(=O)O)[C@H]1CC[C@H]2[C@@H]3[C@H](O)C[C@@H]4C[C@H](O)CC[C@]4(C)[C@H]3C[C@H](O)[C@]12C [taurocholate] | > 10 | > 10 | > 10 | > 10 | > 10 | 104 | 106 | 107 | 110 | 95 | 110 | 86.9 | 104 | 87.2 | 92.2 | 103 | 99 | 109 | 102 | 96.3 | 100 | 98.9 | 101 | 98.9 | 99.2 | 105 | 74 | 99.8 | 108 | 98.4 | 0 | 0 | 0 | 0 | 0
CC[C@]12CCCN3CCc4c(n(c5ccccc45)C(=O)C1)[C@@H]32 [vinburnine] | > 10 | > 10 | > 10 | > 10 | 1.37 | 103 | 96.6 | 100 | 96.9 | 86.2 | 94.4 | 98.5 | 106 | 114 | 78.6 | 96.8 | 97.4 | 93.7 | 97.7 | 88.8 | 94.2 | 97.4 | 96.7 | 95.6 | 79.3 | 93.6 | 89.9 | 102 | 78.7 | 32.2 | 0.4 | 0.4 | 0 | 1.2 | 6.8
C=CCN1C[C@H](C)N([C@H](c2ccc(C(=O)N(CC)CC)cc2)c2cccc(OC)c2)C[C@H]1C [SNC-80] | > 10 | > 10 | > 10 | > 10 | > 10 | 106 | 97.7 | 105 | 102 | 101 | 92.1 | 99.2 | 101 | 95.5 | 93.7 | 93.4 | 98.8 | 101 | 91.2 | 104 | 98.4 | 103 | 93.4 | 99.4 | 94.7 | 99.9 | 84.6 | 100 | 106 | 97.4 | 0 | 0 | 0 | 0 | 0
CCOC(=O)c1ncn2c1CN(C)C(=O)c1cc(F)ccc1-2 [flumazenil] | > 10 | > 10 | > 10 | > 10 | > 10 | 102 | 97.2 | 100 | 95.4 | 98.8 | 95.2 | 99.6 | 99.1 | 102 | 105 | 89.2 | 87.6 | 87.1 | 90.8 | 87 | 99.2 | 103 | 97.3 | 103 | 97.8 | 97.8 | 95 | 97.8 | 90.7 | 95.6 | 0 | 0 | 0 | 0 | 0
CC(C)[C@H](O)C(=O)N[C@@H](C)C(=O)N[C@@H]1C(=O)N(C)CCc2ccccc21 [semagacestat] | > 10 | > 10 | > 10 | > 10 | > 10 | 102 | 101 | 99.9 | 100 | 99.4 | 96.2 | 107 | 98.2 | 102 | 92.6 | 95.8 | 94.8 | 94.7 | 99.8 | 98.1 | 99.9 | 100 | 94 | 96.8 | 92.3 | 99.7 | 105 | 114 | 96.3 | 92.1 | 0 | 0 | 0 | 0 | 0
CN(C)Cc1cccc(N/C(=C2\C(=O)Nc3cc(C(N)=O)ccc32)c2ccccc2)c1 | > 10 | > 10 | > 10 | > 10 | > 10 | 98.3 | 102 | 95.6 | 96.2 | 102 | 102 | 99.7 | 100 | 88.3 | 107 | 103 | 92.7 | 96.3 | 95.6 | 96 | 96.6 | 94.8 | 99 | 93.5 | 101 | 106 | 105 | 89.4 | 112 | 112 | 0 | 0 | 0 | 0 | 0
O=C(c1ccc2nccnc2c1)N1CCCCC1 [ampalex] | > 10 | > 10 | > 10 | > 10 | > 10 | 96.3 | 96.8 | 98.8 | 93.1 | 94 | 97.6 | 100 | 94.5 | 103 | 101 | 97.4 | 107 | 95.5 | 96.6 | 100 | 98.3 | 102 | 94.8 | 99.7 | 102 | 103 | 99.6 | 108 | 102 | 102 | 0 | 0 | 0 | 0 | 0
O=C(Nc1ccccc1)c1ccccc1O [salicylanilide] | > 10 | > 10 | > 10 | > 10 | > 10 | 95.9 | 98.4 | 98.4 | 100 | 99.9 | 80 | 101 | 112 | 102 | 90.6 | 107 | 100 | 102 | 90.9 | 111 | 95.9 | 96.9 | 97.1 | 93.8 | 97.5 | 102 | 96.6 | 94.4 | 94.6 | 75.6 | 0 | 0 | 0 | 0 | 1.6
N=C(N)NC(=O)c1cnn(-c2cccc3ncccc23)c1C1CC1 [zoniporide] | > 10 | > 10 | > 10 | > 10 | > 10 | 92.7 | 102 | 94.9 | 97.5 | 104 | 89.6 | 91.8 | 101 | 102 | 95 | 99.8 | 95.1 | 93.8 | 94.5 | 99.6 | 98.8 | 101 | 104 | 100 | 98.6 | 89.9 | 99.2 | 105 | 103 | 101 | 0 | 0 | 0 | 0 | 0
Nc1ccn([C@@H]2O[C@@](CO)(CCl)[C@@H](O)[C@H]2F)c(=O)n1 [ALS-8112] | > 10 | > 10 | > 10 | > 10 | > 10 | 100 | 97.7 | 97 | 98.8 | 94.8 | 95.2 | 96.4 | 96.1 | 93.9 | 98.9 | 104 | 102 | 93.8 | 100 | 90.9 | 102 | 99.2 | 102 | 96.8 | 97.4 | 90.2 | 94.3 | 104 | 96.1 | 82.8 | 0 | 0 | 0 | 0 | 0.8
CCCN(CCC)C(=O)C(CCC(=O)OCCCN1CCN(CCOC(=O)Cc2c(C)n(C(=O)c3ccc(Cl)cc3)c3ccc(OC)cc23)CC1)NC(=O)c1ccccc1 (stereo not given) [proglumetacin] | > 10 | > 10 | > 10 | > 10 | > 10 | 115 | 97.2 | 98 | 91.5 | 102 | 104 | 96.5 | 99.1 | 112 | 108 | 95.5 | 96.2 | 99 | 110 | 96.6 | 95.9 | 106 | 101 | 104 | 94 | 91 | 114 | 112 | 85.3 | 93.9 | 0 | 0 | 0 | 0 | 1.1
CCOC(=O)[C@H](CCc1ccccc1)N[C@@H](C)C(=O)N1Cc2ccccc2C[C@H]1C(=O)O [quinapril] | > 10 | > 10 | > 10 | > 10 | > 10 | 104 | 97.9 | 102 | 90.4 | 97.8 | 95.7 | 99.6 | 92.1 | 96.3 | 88.5 | 95.2 | 102 | 103 | 97 | 96.5 | 98.1 | 100 | 95.1 | 101 | 93.9 | 106 | 98.9 | 110 | 93.6 | 94.7 | 0 | 0 | 0 | 0 | 0
COc1cc(C[C@H]2C(=O)OC[C@@H]2Cc2ccc(OC)c(OC)c2)ccc1O [arctigenin] | > 10 | > 10 | > 10 | > 10 | 1.44 | 96 | 98.2 | 89.8 | 100 | 95 | 96.2 | 98.9 | 94.5 | 84.4 | 77.1 | 112 | 96.9 | 103 | 97.9 | 89.3 | 101 | 101 | 98.3 | 92 | 86 | 93.7 | 94.8 | 96.6 | 77.3 | 21 | 0 | 2.3 | 0 | 0.4 | 7.8
CN1CCN(CCc2ccc(Cl)c(Cl)c2)CC1 [BD-1063] | > 10 | > 10 | > 10 | > 10 | > 10 | 105 | 101 | 105 | 95.1 | 93.9 | 98.6 | 100 | 95 | 91.3 | 92.2 | 91.3 | 96.2 | 102 | 96.9 | 101 | 94.2 | 100 | 93.9 | 100 | 95.3 | 108 | 102 | 103 | 92.4 | 87.7 | 0 | 0 | 0 | 0 | 0.4
